# From patent publication US12186283B2, “Bismuth-thiol compositions and methods of use” (Microbion Corporation, priority 2018, dated 2025)
# Marks after values point to notes of the source that are not given here.
# Legend:
# Format in all cases: cell-based
# Candida albicans = assay: Broth microdilution MIC, yeast (Example 13)
# Candida glabrata = assay: Broth microdilution MIC, yeast (Example 13)
# Candida krusei = assay: Broth microdilution MIC, yeast (Example 13)
# Candida auris = assay: Broth microdilution MIC, yeast (Example 13)
# Aspergillus spp. = assay: Broth microdilution MIC/MEC, mold (Example 13); conditions: for MIC0 (complete inhibition): comparators, read time not given
# [1] = Candida albicans ATCC 90028, Susceptible, 24 hr
# [2] = Candida albicans ATCC 204276, MICA-R, 24 hr
# [3] = Candida albicans ATCC MYA-2732, FLU-R, VORI-I, 24 hr
# [4] = Candida albicans MMX 7053, Susceptible, 24 hr
# [5] = Candida albicans MMX 7067, FLU-R, VORI-R, 24 hr
# [6] = Candida albicans MMX 7403, Susceptible, 24 hr
# [7] = Candida albicans MMX 7424, CASP-R, MICA-R, 24 hr
# [8] = Candida albicans MMX 7430, Susceptible, 24 hr
# [9] = Candida albicans MMX 7437, FLU-I, 24 hr
# [10] = Candida glabrata ATCC 90030, Susceptible
# [11] = Candida glabrata ATCC MYA-2950, Susceptible
# [12] = Candida glabrata MMX 7087, Susceptible
# [13] = Candida glabrata MMX 7093, FLU-R
# [14] = Candida glabrata MMX 7101, FLU-R
# [15] = Candida glabrata MMX 7103, CASP-R, MICA-R
# [16] = Candida glabrata MMX 7111, Susceptible
# [17] = Candida glabrata MMX 7285, CASP-R, MICA-R
# [18] = Candida glabrata MMX 7307, CASP-R, MICA-R, FLU-R
# [19] = Candida glabrata MMX 7549, Susceptible
# [20] = C. krusei ATCC 14243, Susceptible
# [21] = C. krusei ATCC 96685, Susceptible
# [22] = C. krusei MMX 7125, Susceptible
# [23] = C. krusei MMX 7128, Susceptible
# [24] = C. krusei MMX 7141, Susceptible
# [25] = C. krusei MMX 7155, Susceptible
# [26] = C. krusei MMX 7563, Susceptible
# [27] = C. krusei MMX 9878, MICA-I, VORI-I
# [28] = C. auris MMX 9863, FLU-R, VORI-R
# [29] = C. auris MMX 9864, FLU-R, VORI-R
# [30] = C. auris MMX 9865, FLU-R, VORI-R
# [31] = C. auris MMX 9866, FLU-R, VORI-R
# [32] = C. auris MMX 9867, FLU-R, VORI-R
# [33] = C. auris MMX 9868, FLU-R, VORI-R
# [34] = C. auris MMX 9869, FLU-R, VORI-R
# [35] = C. auris MMX 9870, FLU-R, VORI-R
structure (smiles),measurement,setting,value
C[C@@H]1[C@H](O)[C@@H](C)/C=C/C=C/C=C/C=C/C=C/C=C/C=C/[C@H](O[C@@H]2O[C@H](C)[C@@H](O)[C@H](N)[C@@H]2O)C[C@@H]2O[C@](O)(C[C@@H](O)C[C@@H](O)[C@H](O)CC[C@@H](O)C[C@@H](O)CC(=O)O[C@H]1C)C[C@H](O)[C@H]2C(=O)O [AMP B],MIC0 (complete inhibition),Candida albicans; [1],0.25 µg/mL
same,MIC0 (complete inhibition),Candida albicans; [2],0.25 µg/mL
same,MIC0 (complete inhibition),Candida albicans; [3],0.25 µg/mL
same,MIC0 (complete inhibition),Candida albicans; [4],0.12 µg/mL
same,MIC0 (complete inhibition),Candida albicans; [5],0.25 µg/mL
same,MIC0 (complete inhibition),Candida albicans; [6],0.25 µg/mL
same,MIC0 (complete inhibition),Candida albicans; [7],0.25 µg/mL
same,MIC0 (complete inhibition),Candida albicans; [8],0.25 µg/mL
same,MIC0 (complete inhibition),Candida albicans; [9],0.25 µg/mL
same,MIC0 (complete inhibition),"Candida albicans; Candida albicans MMX 7445, FLU-R, VORI-R, 24 hr",0.12 µg/mL
same,MIC0 (complete inhibition),Candida glabrata; [10],0.25 µg/mL
same,MIC0 (complete inhibition),Candida glabrata; [11],0.12 µg/mL
same,MIC0 (complete inhibition),Candida glabrata; [12],0.12 µg/mL
same,MIC0 (complete inhibition),Candida glabrata; [13],0.25 µg/mL
same,MIC0 (complete inhibition),Candida glabrata; [14],0.25 µg/mL
same,MIC0 (complete inhibition),Candida glabrata; [15],0.25 µg/mL
same,MIC0 (complete inhibition),Candida glabrata; [16],0.25 µg/mL
same,MIC0 (complete inhibition),Candida glabrata; [17],0.25 µg/mL
same,MIC0 (complete inhibition),Candida glabrata; [18],0.25 µg/mL
same,MIC0 (complete inhibition),Candida glabrata; [19],0.25 µg/mL
same,MIC0 (complete inhibition),"Candida krusei; C. krusei ATCC 6258, MICA-I",0.5 µg/mL
same,MIC0 (complete inhibition),Candida krusei; [20],0.25 µg/mL
same,MIC0 (complete inhibition),Candida krusei; [21],0.5 µg/mL
same,MIC0 (complete inhibition),Candida krusei; [22],0.5 µg/mL
same,MIC0 (complete inhibition),Candida krusei; [23],0.5 µg/mL
same,MIC0 (complete inhibition),Candida krusei; [24],0.25 µg/mL
same,MIC0 (complete inhibition),"Candida krusei; C. krusei MMX 7153, MICA-R",0.5 µg/mL
same,MIC0 (complete inhibition),Candida krusei; [25],0.25 µg/mL
same,MIC0 (complete inhibition),Candida krusei; [26],0.5 µg/mL
same,MIC0 (complete inhibition),Candida krusei; [27],0.5 µg/mL
same,MIC0 (complete inhibition),"Candida auris; C. auris MMX 9862, Susceptible",0.25 µg/mL
same,MIC0 (complete inhibition),Candida auris; [28],0.12 µg/mL
same,MIC0 (complete inhibition),Candida auris; [29],0.25 µg/mL
same,MIC0 (complete inhibition),Candida auris; [30],0.25 µg/mL
same,MIC0 (complete inhibition),Candida auris; [31],0.5 µg/mL
same,MIC0 (complete inhibition),Candida auris; [32],0.5 µg/mL
same,MIC0 (complete inhibition),Candida auris; [33],0.25 µg/mL
same,MIC0 (complete inhibition),Candida auris; [34],1 µg/mL
same,MIC0 (complete inhibition),Candida auris; [35],1 µg/mL
same,MIC0 (complete inhibition),"Candida auris; C. auris MMX 9871, Susceptible",1 µg/mL
same,MIC0 (complete inhibition),Aspergillus spp.; A. flavus ATCC 22546,1 µg/mL
same,MIC0 (complete inhibition),Aspergillus spp.; A. flavus ATCC 204304,1 µg/mL
same,MIC0 (complete inhibition),Aspergillus spp.; A. flavus MMX 7935,1 µg/mL
same,MIC0 (complete inhibition),Aspergillus spp.; A. fumigatus ATCC 204305,1 µg/mL
same,MIC0 (complete inhibition),Aspergillus spp.; A. fumigatus ATCC MYA-3626,1 µg/mL
same,MIC0 (complete inhibition),Aspergillus spp.; A. fumigatus MMX 5934,1 µg/mL
same,MIC0 (complete inhibition),Aspergillus spp.; A. fumigatus MMX 5938,1 µg/mL
same,MIC0 (complete inhibition),Aspergillus spp.; A. fumigatus MMX 5939,1 µg/mL
same,MIC0 (complete inhibition),Aspergillus spp.; A. niger ATCC 29508,0.25 µg/mL
same,MIC0 (complete inhibition),Aspergillus spp.; A. terreus MMX 8229,0.25 µg/mL
CC[C@H](C)C[C@H](C)CCCCCCCCC(=O)N[C@H]1C[C@@H](O)[C@@H](NCCN)NC(=O)[C@@H]2[C@@H](O)CCN2C(=O)[C@H]([C@H](O)CCN)NC(=O)[C@H]([C@H](O)[C@@H](O)c2ccc(O)cc2)NC(=O)[C@@H]2C[C@@H](O)CN2C(=O)[C@H]([C@@H](C)O)NC1=O [CASP],MIC2 (50% inhibition),Candida albicans; [1],0.06 µg/mL
same,MIC2 (50% inhibition),Candida albicans; [2],0.25 µg/mL
same,MIC2 (50% inhibition),Candida albicans; [3],0.06 µg/mL
same,MIC2 (50% inhibition),Candida albicans; [4],0.06 µg/mL
same,MIC2 (50% inhibition),Candida albicans; [5],0.06 µg/mL
same,MIC2 (50% inhibition),Candida albicans; [6],0.06 µg/mL
same,MIC2 (50% inhibition),Candida albicans; [7],8 µg/mL
same,MIC2 (50% inhibition),Candida albicans; [8],0.06 µg/mL
same,MIC2 (50% inhibition),Candida albicans; [9],0.06 µg/mL
same,MIC2 (50% inhibition),"Candida albicans; Candida albicans MMX 7445, FLU-R, VORI-R, result after 48 hr incubation (insufficient growth at 24 hr)",0.06^a μg/mL
same,MIC2 (50% inhibition),Candida glabrata; [10],0.12 µg/mL
same,MIC2 (50% inhibition),Candida glabrata; [11],0.12 µg/mL
same,MIC2 (50% inhibition),Candida glabrata; [12],0.12 µg/mL
same,MIC2 (50% inhibition),Candida glabrata; [13],0.12 µg/mL
same,MIC2 (50% inhibition),Candida glabrata; [14],0.12 µg/mL
same,MIC2 (50% inhibition),Candida glabrata; [15],>8 µg/mL
same,MIC2 (50% inhibition),Candida glabrata; [16],0.12 µg/mL
same,MIC2 (50% inhibition),Candida glabrata; [17],0.5 µg/mL
same,MIC2 (50% inhibition),Candida glabrata; [18],>8 µg/mL
same,MIC2 (50% inhibition),Candida glabrata; [19],0.06 µg/mL
same,MIC2 (50% inhibition),"Candida krusei; C. krusei ATCC 6258, MICA-I",0.25 µg/mL
same,MIC2 (50% inhibition),Candida krusei; [20],0.012 µg/mL
same,MIC2 (50% inhibition),Candida krusei; [21],0.12 µg/mL
same,MIC2 (50% inhibition),Candida krusei; [22],0.25 µg/mL
same,MIC2 (50% inhibition),Candida krusei; [23],0.25 µg/mL
same,MIC2 (50% inhibition),Candida krusei; [24],0.25 µg/mL
same,MIC2 (50% inhibition),"Candida krusei; C. krusei MMX 7153, MICA-R",0.25 µg/mL
same,MIC2 (50% inhibition),Candida krusei; [25],0.25 µg/mL
same,MIC2 (50% inhibition),Candida krusei; [26],0.12 µg/mL
same,MIC2 (50% inhibition),Candida krusei; [27],0.25 µg/mL
same,MIC2 (50% inhibition),"Candida auris; C. auris MMX 9862, Susceptible",0.12 µg/mL
same,MIC2 (50% inhibition),Candida auris; [28],0.12^b μg/mL
same,MIC2 (50% inhibition),Candida auris; [29],0.25^b μg/mL
same,MIC2 (50% inhibition),Candida auris; [30],0.25^b μg/mL
same,MIC2 (50% inhibition),Candida auris; [31],0.12^b μg/mL
same,MIC2 (50% inhibition),Candida auris; [32],0.12 µg/mL
same,MIC2 (50% inhibition),Candida auris; [33],0.25 µg/mL
same,MIC2 (50% inhibition),Candida auris; [34],0.25 µg/mL
same,MIC2 (50% inhibition),Candida auris; [35],0.25 µg/mL
same,MIC2 (50% inhibition),"Candida auris; C. auris MMX 9871, Susceptible",0.25^b μg/mL
same,MEC (minimum effective concentration),Aspergillus spp.; A. flavus ATCC 22546,0.06 µg/mL
same,MEC (minimum effective concentration),Aspergillus spp.; A. flavus ATCC 204304,0.06 µg/mL
same,MEC (minimum effective concentration),Aspergillus spp.; A. flavus MMX 7935,0.03 µg/mL
same,MEC (minimum effective concentration),Aspergillus spp.; A. fumigatus ATCC 204305,0.25 µg/mL
same,MEC (minimum effective concentration),Aspergillus spp.; A. fumigatus ATCC MYA-3626,0.06 µg/mL
same,MEC (minimum effective concentration),Aspergillus spp.; A. fumigatus MMX 5934,0.12 µg/mL
same,MEC (minimum effective concentration),"Aspergillus spp.; A. fumigatus MMX 5938, 48 hr only, insufficient growth for 24 hr read",0.12^b μg/mL
same,MEC (minimum effective concentration),Aspergillus spp.; A. fumigatus MMX 5939,0.12 µg/mL
same,MEC (minimum effective concentration),"Aspergillus spp.; A. niger ATCC 29508, 48 hr only, insufficient growth for 24 hr read",0.06^b μg/mL
same,MEC (minimum effective concentration),"Aspergillus spp.; A. terreus MMX 8229, 48 hr only, insufficient growth for 24 hr read",0.12^b μg/mL
